One experiment deals with b-Raf(V600E) (Homo sapiens (Human), UniProt P15056, V600E). Particulars: read-out: b-Raf IC-50; Table 2; Alpha Screen, ATP 10 μM, 3 hours reaction.
The target in experiment [1] is C-Raf FL (full-length C-Raf protein) (Homo sapiens (Human), UniProt P04049, Y340E/Y341E). It is filed as biochemical. To be noted: read-out: c-Raf FL IC-50.
Setting [2] is: Table 2, Alpha Screen, ATP 1 uM, 1 hour reaction.

Like-named read-outs stand apart in the source and are kept apart here.

Chain of b-Raf(V600E) (P15056 whole entry V600E): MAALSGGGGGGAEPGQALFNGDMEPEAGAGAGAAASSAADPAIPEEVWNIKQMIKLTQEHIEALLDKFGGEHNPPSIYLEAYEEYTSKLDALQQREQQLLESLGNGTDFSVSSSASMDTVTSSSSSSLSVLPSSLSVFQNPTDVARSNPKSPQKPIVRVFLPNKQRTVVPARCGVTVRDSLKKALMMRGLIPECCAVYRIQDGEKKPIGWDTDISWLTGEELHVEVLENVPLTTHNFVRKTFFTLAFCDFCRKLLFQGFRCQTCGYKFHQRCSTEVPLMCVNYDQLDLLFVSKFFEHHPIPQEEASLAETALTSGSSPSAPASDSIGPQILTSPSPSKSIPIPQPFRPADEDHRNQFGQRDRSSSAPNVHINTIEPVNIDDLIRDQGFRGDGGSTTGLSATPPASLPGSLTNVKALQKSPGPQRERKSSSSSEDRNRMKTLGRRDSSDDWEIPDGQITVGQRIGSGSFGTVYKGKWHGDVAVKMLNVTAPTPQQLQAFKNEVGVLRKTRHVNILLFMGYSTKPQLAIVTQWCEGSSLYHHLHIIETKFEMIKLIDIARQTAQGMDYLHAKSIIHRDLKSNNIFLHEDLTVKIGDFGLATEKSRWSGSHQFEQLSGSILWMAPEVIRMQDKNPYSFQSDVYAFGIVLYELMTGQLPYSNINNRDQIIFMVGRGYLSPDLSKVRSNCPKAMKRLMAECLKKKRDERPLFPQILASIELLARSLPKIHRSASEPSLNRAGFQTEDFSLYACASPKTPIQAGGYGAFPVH
Chain of C-Raf FL (full-length C-Raf protein) (P04049 whole entry Y340E/Y341E): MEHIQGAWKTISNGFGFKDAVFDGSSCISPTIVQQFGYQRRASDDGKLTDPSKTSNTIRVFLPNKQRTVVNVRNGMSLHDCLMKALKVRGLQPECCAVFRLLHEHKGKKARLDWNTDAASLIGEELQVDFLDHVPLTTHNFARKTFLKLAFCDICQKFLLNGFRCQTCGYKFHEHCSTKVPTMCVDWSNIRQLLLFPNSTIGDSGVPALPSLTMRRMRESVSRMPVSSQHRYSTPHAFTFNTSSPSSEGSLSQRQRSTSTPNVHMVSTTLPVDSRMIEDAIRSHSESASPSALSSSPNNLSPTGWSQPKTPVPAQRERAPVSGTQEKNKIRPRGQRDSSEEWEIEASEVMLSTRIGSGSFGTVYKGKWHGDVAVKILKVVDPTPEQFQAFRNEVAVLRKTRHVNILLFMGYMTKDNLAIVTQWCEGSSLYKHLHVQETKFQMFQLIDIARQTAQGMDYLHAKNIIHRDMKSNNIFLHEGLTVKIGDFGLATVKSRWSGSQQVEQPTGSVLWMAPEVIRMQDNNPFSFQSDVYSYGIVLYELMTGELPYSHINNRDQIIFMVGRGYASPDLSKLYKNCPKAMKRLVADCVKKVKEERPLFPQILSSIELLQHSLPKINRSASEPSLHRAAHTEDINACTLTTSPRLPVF
Chain of C-Raf FL (full-length C-Raf protein) (P63104 whole entry partner): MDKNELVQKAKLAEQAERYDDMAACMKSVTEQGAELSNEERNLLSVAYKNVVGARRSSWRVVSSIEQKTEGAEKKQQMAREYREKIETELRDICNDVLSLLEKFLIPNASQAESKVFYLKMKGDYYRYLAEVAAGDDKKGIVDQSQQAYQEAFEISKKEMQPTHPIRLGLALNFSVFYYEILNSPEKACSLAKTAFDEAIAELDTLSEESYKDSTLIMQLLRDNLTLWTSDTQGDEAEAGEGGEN

For `CCNc1nc(-c2cc(NC(=O)c3ccnc(C(F)(F)F)c3)ccc2C)cc(N2CCOCC2)n1` [Example 719, N-(3-(2-(ethylamino)-6-morpholinopyrimidin-4-yl)-4-methylphenyl)-2-(trifluoromethyl) isonicotinamide], the IC50 on b-Raf(V600E) was 2 nM. Take `Cc1ncc(NC(=O)c2cccc(C(F)(F)F)c2)cc1-c1cc(N2CCOCC2)nc(NC[C@@H](C)O)n1` [Example 743, (R)—N-(5-(2-((2-hydroxypropyl)amino)-6-morpholinopyrimidin-4-yl)-6-methylpyridin-3-yl)-3-(trifluoromethyl) benzamide]: the IC50 in experiment [1] was 0.8 nM. As for `CCNc1nc(-c2cc(C(=O)Nc3cccc(C(F)(F)F)c3)ccc2C)cc(N2CCOCC2)n1` [Example 710, 3-(2-(ethylamino)-6-morpholinopyrimidin-4-yl)-4-methyl-N-(3-(trifluoromethyl)phenyl) benzamide], the IC50 came out at 1.6 nM in experiment [1] (setting [2]) and 4 nM on b-Raf(V600E).

Consider `Cc1ccc(NC(=O)c2cccc(C(F)(F)F)c2)cc1-c1cc(N2CCOCC2)c(OCCO)nn1` [Example 590, N-(3-(6-(2-hydroxyethoxy)-5-morpholinopyridazin-3-yl)-4-methylphenyl)-3-(trifluoromethyl)benzamide], for which the results for the IC50 (in experiment [1] (setting [2]); at b-Raf(V600E)) were 0.2 nM and 0.9 nM, respectively.

Source of the values: patent US10245267B2, “Biaryl amide compounds as kinase inhibitors” (NOVARTIS AG, priority 2013, dated 2019).
